Data from PMC3839906, “Structural and Physiological Analyses of the Alkanesulphonate-Binding Protein (SsuA) of the Citrus Pathogen Xanthomonas citri” (PLoS ONE, 2013).

Assays:
[1] = target: T1, SsuA (alkanesulphonate-binding protein) (Xanthomonas citri, UniProt A0AAI7ZHA1); assay: thermal shift assay, SYPRO orange; conditions: 5 mM ligand, 6 µM SsuA, 20 mM Tris pH 7.4, 50 mM NaCl
T1 construct: mature periplasmic protein without the 42-residue signal peptide (972 bp amplicon), pET28a N-terminal His6 tag with thrombin site, tag cut with thrombin; expressed in E. coli BL21(DE3); one molecule per asymmetric unit
T1 sequence (A0AAI7ZHA1 entry or part of it): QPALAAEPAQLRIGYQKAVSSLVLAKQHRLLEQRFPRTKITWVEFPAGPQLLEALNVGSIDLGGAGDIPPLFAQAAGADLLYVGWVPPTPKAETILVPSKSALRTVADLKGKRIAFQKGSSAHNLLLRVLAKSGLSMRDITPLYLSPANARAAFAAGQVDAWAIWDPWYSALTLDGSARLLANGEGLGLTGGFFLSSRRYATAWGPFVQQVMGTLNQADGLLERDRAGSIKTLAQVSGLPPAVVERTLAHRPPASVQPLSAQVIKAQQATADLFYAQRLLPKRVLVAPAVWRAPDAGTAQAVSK

[2] = target: T1, SsuA (alkanesulphonate-binding protein); assay: X-ray crystal structure of the complex; conditions: ligand-binding pocket

| SMILES | Tm (unbound form 39.5 °C) [1] | X-ray crystal structure of the complex ([2]; 0.1 M HEPES pH 7.5, 1.6 M ammonium sulphate, 0.1 M NaCl) | X-ray crystal structure of the complex ([2]; PDB code as in the deposition statement b39 (b17 prints 3KSX for MES)) | X-ray crystal structure of the complex ([2]; PDB code as in the deposition statement b39 (b17 prints 3KSJ for MOPS)) |
| --- | --- | --- | --- | --- |
| O=S(=O)(O)CCNC1CCCCC1 [CHES, 2-(n-cyclohexylamino)-ethanesulphonic acid] | 43.5 °C | – | – | – |
| O=S(=O)(O)CCN1CCN(CCO)CC1 [HEPES, 4-(2-hydroxyethyl)-1-piperazine ethane sulphonic acid] | 45.8 °C | PDB codes 3E4R (SsuA + HEPES), 3KSX (SsuA + MOPS) and 3KSJ (SsuA + MES) | – | – |
| O=S(=O)(O)CCN1CCOCC1 [MES, 2-(n-morpholino)-ethanesulphonic acid] | 47.1 °C | – | PDB codes 3E4R (SsuA + HEPES), 3KSX (SsuA + MOPS) and 3KSJ (SsuA + MES) | – |
| O=S(=O)(O)CCCN1CCOCC1 [MOPS, 3-morpholinopropane-1-sulphonic acid] | 51 °C | – | – | PDB codes 3E4R (SsuA + HEPES), 3KSX (SsuA + MOPS) and 3KSJ (SsuA + MES) |
